The target in this test is Lanosterol 14-alpha demethylase (Candida albicans) (UniProt P10613). The experiment in a line: In vitro inhibition of cytochrome P450 lanosterol C14 demethylase in Candida albicans CY1005.
Chain of Lanosterol 14-alpha demethylase (Candida albicans) (P10613 whole entry, looked up): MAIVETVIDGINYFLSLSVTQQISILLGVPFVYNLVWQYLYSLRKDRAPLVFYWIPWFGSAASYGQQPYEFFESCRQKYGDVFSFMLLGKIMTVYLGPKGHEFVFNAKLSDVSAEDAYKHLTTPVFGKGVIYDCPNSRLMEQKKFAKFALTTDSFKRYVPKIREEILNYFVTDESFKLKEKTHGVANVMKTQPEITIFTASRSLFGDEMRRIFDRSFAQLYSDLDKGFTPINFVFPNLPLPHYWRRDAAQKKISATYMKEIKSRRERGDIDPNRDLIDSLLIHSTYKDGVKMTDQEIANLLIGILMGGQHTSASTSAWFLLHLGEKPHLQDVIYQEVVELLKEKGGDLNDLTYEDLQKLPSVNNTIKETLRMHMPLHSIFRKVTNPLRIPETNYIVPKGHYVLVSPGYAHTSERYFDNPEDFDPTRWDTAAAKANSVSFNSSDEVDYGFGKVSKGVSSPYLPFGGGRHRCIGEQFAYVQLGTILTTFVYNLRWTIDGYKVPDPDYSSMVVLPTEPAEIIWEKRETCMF
The term IC50 denotes the midpoint of a concentration-inhibition curve. Read a high IC50 as a need for much substance. The molecule `CCc1ccc(CC[C@@H]2CCC(C)(C)/C(=N/O)[C@H]2Cn2cncn2)cc1` returned an IC50 of 73.3 nM.

Take `COC1[C@@H](Cn2cncn2)[C@H](COc2ccc(OC(F)(F)F)cc2)CCC1(C)C` (some centres not stated): inhibition was half-maximal at 118 nM (IC50).

In turn, `CO/N=C1\[C@@H](Cn2cncn2)[C@H](COc2ccc(OC(F)(F)F)cc2)CCC1(C)C` had an IC50 of 56.3 nM.

In turn, `CC1(C)CC[C@@H](COc2ccc(OC(F)(F)F)cc2)[C@H](Cn2cncn2)C1OCCO` (some centres not stated) showed an IC50 of 22.5 nM.

As to `CCc1ccc(CC[C@@H]2CCC(C)(C)/C(=N/OC)[C@H]2Cn2cncn2)cc1`, the midpoint of inhibition, the IC50, lay at 86.8 nM.

`CCc1ccc(CC[C@@H]2CCC(C)(C)C(OCCO)[C@H]2Cn2cncn2)cc1` (some centres not stated) yielded an IC50 of 83 nM.

As for `CC1(C)CC[C@@H](COc2ccc(OC(F)(F)F)cc2)[C@H](Cn2cncn2)/C1=N\O`, the IC50 was found to be 130 nM.

For the origin of these results see BindingDB's records for doi:10.1016/s0960-894x(98)00316-3 (Nippon Roche Research Center, 1998).
